Experimental data: patent US20050054587A1, “Novel therapeutic indication of azithromycin for treatment of non-infective inflamatory diseases” (priority 2001, published 2005)

Key:
Type in all cases: in vivo, human
[1] = test system: azurophilic granules of neutrophils; assay: Release of glycosidases from azurophilic granules (NAGA and β-glucuronidase); details: healthy volunteers, 3×500 mg; within 24 hours after the last dose
Procedure: (§1) A trial on healthy volunteers was conducted and the influence of azithromycin given in a dosage of 3×500 mg on selected inflammation-relevant parameters was followed up.
(§2) Each subject received two standard 250 mg capsules of azithromycin (Sumamed®, PLIVA Zagreb) on three consecutive days. Immediately before the treatment and 2 h and 30 min, 24 h and 28 days after the third and last dose of azithromycin blood was collected from the cubital vein into EDTA-containing tubes. Aliquots were taken for cell counting, smear preparation, polymorphonuclear cell and serum isolation.
Glycosidases are enzymes that catalyse hydrolysis of glycosidic bonds of oligosacharides and other glycosides. They are specific to the glycosidic part of substrate molecule. N-acetyl-β-D-glucosaminidase (NAGA) and β-glucuronidase are such enzymes. They are lysosomal enzymes, both located in azurophilic (primary; peroxidase-positive) granules of neutrophils. Since degranulation of neutrophils is present during inflammation, many authors choose these enzymes as markers of degranulation and for estimation of neutrophil reactivity. The catalytic concentration of both enzymes in serum and in neutrophil lysates was determined using the fluorimetric method described by O'Brien et al. (New Engl. J. Med. (1970) 283: 15-20) for NAGA and Glaser & Sly (J. Lab. Clin. Med. (1973) 82: 969) for β-glucuronidase. […]

[2] = test system: N-acetyl-β-D-glucosaminidase (NAGA); assay: NAGA activity in neutrophil (PMN) lysates, fluorimetric; details: healthy volunteers; for NAGA (PMN): azithromycin 3×500 mg, baseline 4.15 ± 01.6
Procedure: as §1, §2
Glycosidases are enzymes that catalyse hydrolysis of glycosidic bonds of oligosacharides and other glycosides. They are specific to the glycosidic part of substrate molecule. N-acetyl-β-D-glucosaminidase (NAGA) and β-glucuronidase are such enzymes. They are lysosomal enzymes, both located in azurophilic (primary; peroxidase-positive) granules of neutrophils. Since degranulation of neutrophils is present during inflammation, many authors choose these enzymes as markers of degranulation and for estimation of neutrophil reactivity. The catalytic concentration of both enzymes in serum and in neutrophil lysates was determined using the fluorimetric method described by O'Brien et al. (New Engl. J. Med. (1970) 283: 15-20) for NAGA and Glaser & Sly (J. Lab. Clin. Med. (1973) 82: 969) for β-glucuronidase.

IL-6 = assay: Serum IL-6 concentration, ELISA; details: healthy volunteers, azithromycin 3×500 mg, baseline 3.4 ± 1.05
Procedure: as §1, §2
(§3) Cytokine and chemokine concentrations were determined using ELISA kits. […] Rapid and pronounced decreases in the plasma concentrations of the neutrophil-stimulating chemokine, IL-8, and GR0-α were observed 2 h and 30 min and 24 h after the last dose of azithromycin (Table 1. The concentration of IL-8 returned essentially to baseline after 28 days, while that of GRO-[…] was decreased at this time.

GRO-α = assay: Serum GRO-α concentration, ELISA; details: healthy volunteers, azithromycin 3×500 mg, baseline 124.1 ± 33.02
Procedure: as §1, §2, §3

myeloperoxidase (MPO) = assay: Myeloperoxidase cytochemical score in blood smear neutrophils, healthy volunteer trial; details: healthy volunteers, azithromycin 3×500 mg, baseline 337 ± 29, score 0-400
Procedure: as §1, §2
The activity of MPO was assessed from the intensity of staining of neutrophils in blood smears and in cell lysates by ELISA. After fixation in ethanol-formaldehyde, smears were incubated in a substrate solution containing hydrogen peroxide and benzidine (SIGMA). After incubation, smears were counterstained with Giemsa solution. MPO value positivity_of 100 granulocytes was evaluated and scored from 0 to 4+ on the basis of the intensity of the precipitated dye in cytoplasm. Therefore, the value of the score could be from 0 to 400. Normal values of score range (290-390) were taken from this study before azithromycin administration. MPO activity was also evaluated on the digital image of smear taken with a digital camera under the high magnification (×1000) of light microscope. MPO activities in blood smear neutrophils decreased from 2 h and 30 min to 24 h after the last azithromycin dose and returned to baseline after 28 days (Table 1). The change in neutrophil enzyme protein followed the same pattern as that in intracellular enzyme activity, decreasing from 2 h and 30 min to 24 h after the last dose of azithromycin and returning to baseline after 28 days. Both methodological approaches of MPO determination confirmed each other. Degranulation presented with lower MPO neutrophil density determined_with cytochemistry was associated with lower MPO ELISA concentrations in neutrophil lysates.

glutathione reductase = assay: Glutathione reductase activity in PMN lysates (BIOXYTECH GR-340); details: healthy volunteers, azithromycin 3×500 mg, baseline 9.63 ± 1.16
Procedure: as §1, §2
Glutathione reductase is an ubiquitous enzyme that catalyses the reduction of oxidised glutathione (GSSG) to glutathione (GSH). Glutathione reductase is essential for the glutathione redox cycle that maintains adequate levels of reduced cellular GSH. GSH serves as an antioxidant, reacting with free radicals and organic peroxides, in amino acid transport, and as a substrate for the GSHPx and glutathione S-transferases in the detoxification of organic peroxides and metabolism of xenobiotics. Glutathione reductase was determined using the BIOXYTECH® GR-340™ colorimetric assay for glutathione reductase (OXIS International, Inc.). Briefly, oxidation of NADPH to NADP^+ is catalysed by a limiting concentration of glutathione reductase.

neutrophils = assay: fMLP-stimulated neutrophil oxidative burst, cytochrome c assay; details: healthy volunteers, azithromycin 3×500 mg, baseline 0.020 ± 0,014, absorbances 550 nm and 540 nm
Procedure: as §1, §2
Neutrophils were incubated with cytochrome c and stimulated with fMLP (Cohen and Chovaniec, 1978, J. Clin. Invest. 61: 1081-1087). Absorbances at 550 nm and 540 nm were recorded and the results were expressed as delta A.

stimulated neutrophils = assay: fMLP-stimulated neutrophil oxidative burst, luminol chemiluminescence; details: healthy volunteers, azithromycin 3×500 mg, baseline 29335 ± 1957
Procedure: as §1, §2
The generation of reactive oxygen species by activated cells is frequently determined by the measurement of chemiluminescence (CL). The radical species formed react with a photon-producing chemical (e.g. Luminol) and the resulting light emission is measured with a photocell. Chemiluminescence is detectable as a result of the stimulation (e.g. fMLP) of leucocytes and is a measure of their oxidative cytotoxic activity (Allen et al., Biochem. Biophys. Res. Commun. (1972), 47: 679).
The results of the study presented in Table 1 show, that azithromycin inhibits chemiluminescence generated from stimulated neutrophils isolated from the blood of humans treated with azithromycin.

Structure (SMILES): CC[C@H]1OC(=O)[C@H](C)[C@@H](O[C@H]2C[C@@](C)(OC)[C@@H](O)[C@H](C)O2)[C@H](C)[C@@H](O[C@@H]2O[C@H](C)C[C@H](N(C)C)[C@H]2O)[C@](C)(O)C[C@@H](C)CN(C)[C@H](C)[C@@H](O)[C@]1(C)O [azithromycin, 9-deoxo-9-dihydro-9a-methyl-9a-aza-9a-homoerythromycin A]
- release of enzymes from azurophilic granules [1]: 40-50%
- decrease in NAGA in granulocytes ([2]; 3×500 mg, 2 h and 30 min after the last dose, vs initial values): about 70%
- NAGA activity in PMN lower compared to initial values ([2]; 3×500 mg, 24 hours after the last dose): about 40%
- NAGA activity in PMN increase from the 2 h and 30 min value ([2]; 3×500 mg, 24 hours later): about 30%
- activity of NAGA (PMN) increased over the initial values ([2]; 3×500 mg, after 28 days): 40%
- NAGA (PMN) ([2]; 2 h and 30 min after last dose): 1.13 ± 0.72 nmol × 10^−6 cells × min^−1
- NAGA (PMN) ([2]; 24 hours after last dose): 2.62 ± 1.6 nmol × 10^−6 cells × min^−1
- NAGA (PMN) ([2]; 28 days after last dose): 5.95 ± 3.7 nmol × 10^−6 cells × min^−1
- IL-6 (serum) (IL-6; 2 h and 30 min after last dose): 2.7 ± 1.49 pg/mL
- IL-6 (serum) (IL-6; 24 hours after last dose): 2.5 ± 1.48 pg/mL
- IL-6 (serum) (IL-6; 28 days after last dose): 1.15 ± 0.61 pg/mL
- GRO-α (serum) (GRO-α; 2 h and 30 min after last dose): 109.6 ± 30.35 pg/mL
- GRO-α (serum) (GRO-α; 24 hours after last dose): 107.9 ± 27.83 pg/mL
- GRO-α (serum) (GRO-α; 28 days after last dose): 90.4 ± 22.32 pg/mL
- myeloperoxidase (score) (myeloperoxidase (MPO); 2 h and 30 min after last dose): 326 ± 26
- myeloperoxidase (score) (myeloperoxidase (MPO); 24 hours after last dose): 315 ± 22
- myeloperoxidase (score) (myeloperoxidase (MPO); 28 days after last dose): 347 ± 18
- GLUTATHION REDUCTASE (PMN) (glutathione reductase; 2 h and 30 min after last dose): 7.39 ± 1.23 mU/10^6PMN
- GLUTATHION REDUCTASE (PMN) (glutathione reductase; 24 hours after last dose): 7.91 ± 0.87 mU/10^6PMN
- GLUTATHION REDUCTASE (PMN) (glutathione reductase; 28 days after last dose): 11.27 ± 2.24 mU/10^6PMN
- OXIDATIVE BURST (PMN) fMLP-cytochrom c (neutrophils; 2 h and 30 min after last dose): 0,007 ± 0.015 ΔA
- OXIDATIVE BURST (PMN) fMLP-cytochrom c (neutrophils; 24 hours after last dose): −0,018 ± 0.010 ΔA
- OXIDATIVE BURST (PMN) fMLP-cytochrom c (neutrophils; 28 days after last dose): −0,0011 ± 0,0010 ΔA
- OXIDATIVE BURST (PMN) fMLP-luminol (stimulated neutrophils; 2 h and 30 min after last dose): 14774 ± 1175 A.U.
- OXIDATIVE BURST (PMN) fMLP-luminol (stimulated neutrophils; 24 hours after last dose): 5053 ± 3804 A.U.
- OXIDATIVE BURST (PMN) fMLP-luminol (stimulated neutrophils; 28 days after last dose): 9879 ± 13880 A.U.
